We go through six molecules from publication PMC4184853, “Biohybrid Polymer-Antimicrobial Peptide Medium against Enterococcus faecalis” (PLoS ONE, 2014).

Where two headings read alike, the source gives them in different places. Non-standard residues stand in square brackets, D forms with d. Residues, ends and D or L forms follow the SMILES beside them. *: point of attachment. Palmitoyl = CCCCCCCCCCCCCCCC(=O)* Where only a bound is given, the exact number is not on record here.

Common to all, as to type: cell-based, Enterococcus faecalis
Assay [1] has as its system E. faecalis (ATCC #v583). The method, then: (§1) E. faecalis (ATCC #v583), was cultured overnight in 5 ml brain-heart infusion (BHI) (Difco, Detroit, MI, USA) broth supplemented with 2 mg/ml vancomycin (Sigma-Aldrich), at 37°C under aerobic conditions. The top 4 ml were transferred to a fresh test tube and the optical density (OD) was determined according to the specific experiment.
The antibacterial activity of the peptides was examined using the microdilution assay. Briefly, the bacterial suspension (at OD 0.3) was diluted at a ratio of 1∶1000. Aliquots of 150 µl of bacterial suspension were added to 50 µl of peptide dilutions in phosphate buffered saline (PBS) (Sigma-Aldrich) (in triplicate for each concentration) in a 96-well plate (Nunc 96 microtiter plates, Roskilde, Denmark). The optical density (595 nm) in each well was recorded every 20 min using a microplate reader (VERSAmax tunable microplate reader, molecular devices, Sunnyvale, CA, USA) at 37°C for 18–24 hrs. The minimal inhibitory concentration (MIC) was determined as the concentration which inhibited visible growth after 18–24 hrs.

The subject of assay [2] is E. faecalis biofilm. Nature of the assay: Antibiofilm activity, ATP bioluminescence. The conditions noted are these: biofilm exposed 72 hrs, 24 well plates; compared with untreated E. faecalis. Here is the method:
(§2) Antibiofilm activity was tested on E. faecalis biofilms grown for 72 hrs. Biofilm was formed in microtiter plates (24 well plates for the ATP bioluminescence assay and 96 well plates for the crystal violet biomass assay and confocal laser spectroscopy). Saliva was collected from one donor and DL-Dithiolthreitol (DTT) (Thermo Scientific, Abu-Gosh, Israel) was added to 2.5 mM. The suspension was kept at 4°C for 10 min and then centrifuged for 15 min at 6,500×g. The supernatant was transferred to a fresh sterile tube and diluted to 25% with sterile double distilled water (DDW). The diluted saliva was disinfected using a 0.2 µm vacuum-driven filter (0.22 µm, […], Jet biofil, Belgium). […] Bacterial metabolism in the attached biofilm was assessed using ATP bioluminescence. Biofilm mass was measured using crystal violet as described below.
Bacterial killing was evaluated by measuring intracellular ATP levels, an energy parameter commonly used as an indicator of cell injury and viability. […] ATP levels were determined using an ATP bioluminescence assay kit (CLS 2, Roch Diagnostics, Mannheim, Germany). In a 96 microtiter plate designed for luminescence assay (Thermo Scientific, NUNC, 96-well optical Btm Plt white, Rochester, NY, USA) a 100 µl volume of the samples was added to 6 wells for each tested group. […]

The subject of assay [3] is E. faecalis (ATCC #v583). In words: Growth curves with soluble peptide: percent growth reduction and generation time. The conditions noted are these: concentrations below 5 µg/ml. The method, then: as §1
The antibacterial activity of the peptides was examined using the microdilution assay. Briefly, the bacterial suspension (at OD 0.3) was diluted at a ratio of 1∶1000. […] The optical density (595 nm) in each well was recorded every 20 min using a microplate reader (VERSAmax tunable microplate reader, molecular devices, Sunnyvale, CA, USA) at 37°C for 18–24 hrs. The minimal inhibitory concentration (MIC) was determined as the concentration which inhibited visible growth after 18–24 hrs.
The presented data are the mean and standard deviation of triplicates of a representative experiment repeated three times. The growth mean, and multiple comparisons of growth inhibition by AMP (compared with the growth of untreated bacteria) were calculated from each growth curve using Student’s t-test. […]
Figure 1 E. faecalis growth is inhibited by C16-KGGK but not by hBD3. Growth of E. faecalis was measured (see Materials and Methods) in the presence of increasing concentrations of hBD3 (A) or of the lipopeptide KGGK (B). […]

The test system of assay [4] is E. faecalis biofilm. Nature of the assay: Bacterial vitality in biofilm, live/dead staining with confocal microscopy. The conditions noted are these: 72 hrs contact during biofilm formation. Here is the method:
as §2
Confocal laser scanning microscopy (CLSM) was used to explore the vitality of bacteria in the different depth layers of the biofilm. […] To read the results directly, the wells were coated with emulsion oil to prevent dehydration. Fluorescence emission was detected using a Zeiss LSM 410 confocal laser scanning microscope (Carl Zeiss Microscopy, Jena, Germany). Red fluorescence was measured at 630 nm and green fluorescence at 520 nm; objective lenses: x60/oil, 1.4 numerical aperture. […]

A further assay concerns E. faecalis biofilms. Nature of the assay: Antibiofilm activity, crystal violet biomass assay. The conditions noted are these: biofilm grown 72 hrs in saliva-coated 96 well plates in presence of test material. The method, then:
as §2
The total biofilm yield was assessed using crystal violet staining as follows. […] The acetic acid was transferred to wells of a new 96-well microtiter plate that was placed in a microplate reader and absorbance (OD595 nm) was measured.
Figure 3 Effect of the antimicrobial peptides on the development of E. faecalis biofilms. […] The biofilm was stained with 1% crystal violet measured at OD 595 nm (see Materials and Methods). […]

For orientation: MIC means the lowest concentration that inhibits growth of the organism. High values mean weaker potency, low ones greater potency. Turning to `CC(C)C[C@H](NC(=O)[C@H](CC(C)C)NC(=O)[C@@H](CCCCN)NC(=O)[C@H](CC(C)C)NC(=O)[C@H](CC(C)C)NC(=O)[C@H](CCCCN)NC(=O)[C@@H](CCCCN)NC(=O)[C@@H](CC(C)C)NC(=O)[C@H](CC(C)C)NC(=O)[C@@H](CCCCN)NC(=O)[C@H](CCCCN)NC(=O)[C@H](CC(C)C)NC(=O)[C@@H](CC(C)C)NC(=O)[C@H](CCCCN)NC(=O)[C@@H](N)CC(C)C)C(N)=O` [Amp-1D] (H-LK[dL]LK[dK]L[dL][dK]KLL[dK]LL-NH2; N-terminus assumed), in the assay on E. faecalis (ATCC #v583) [1] (ATCC #v583), the minimum inhibitory concentration (MIC) was above 25 µg/mL.

Turning to `CCCCCCCCCCCCCCCC(=O)N[C@@H](CCCCN)C(=O)N[C@@H](C)C(=O)N[C@@H](C)C(=O)N[C@@H](CCCCN)C(N)=O` [C16-KAAK] (Palmitoyl-KAAK-NH2), the minimum inhibitory concentration (MIC) against E. faecalis (ATCC #v583) [1] (ATCC #v583) was in the range of 12.5 to 25 µg/mL.

With `CCCCCCCCCCCCCCCC(=O)N[C@@H](CCCCN)C(=O)NCC(=O)NCC(=O)N[C@@H](CCCCN)C(N)=O` [C16-KGGK] (Palmitoyl-KGGK-NH2), the “ATP levels in biofilm (luminescence)” value with E. faecalis biofilm [2] is listed as “relatively low compared with that in the untreated control”. Also, the “growth of E. faecalis at sub-inhibitory concentrations” value with E. faecalis (ATCC #v583) [3] was “accelerated”. Also, in the assay with E. faecalis (ATCC #v583) [1] (ATCC #v583), the MIC fell in the range of 4 to 5 µg/mL. The “concentration causing complete growth inhibition” value in the assay with E. faecalis (ATCC #v583) [1] (planktonic E. faecalis, microdilution, 18–24 hrs) is 5 µg/mL. Further, the “vitality of biofilm bacteria (live/dead stain, CLSM)” value with E. faecalis biofilm [4] was “induced death in the biofilm bacteria”.

As to `CCCCCCCCCCCCCCCC(=O)N[C@@H](CCCCN)C(=O)N[C@@H](CCCCN)C(=O)N[C@@H](CCCCN)C(N)=O` [C16-KKK], the MIC against E. faecalis (ATCC #v583) [1] (ATCC #v583) lay in the range of 6 to 12.5 µg/mL. Besides, the “anti-biofilm effect (biofilm mass, crystal violet, OD 595 nm)” value with E. faecalis biofilms is “showed anti-biofilm activity”.

Take `CCCCCCCCCCCCCCCC(=O)N[C@@H](CCCCN)C(=O)N[C@@H](CC(C)C)C(=O)N[C@@H](CC(C)C)C(=O)N[C@@H](CCCCN)C(N)=O` [C16-KLLK] (Palmitoyl-KLLK-NH2): the MIC against E. faecalis (ATCC #v583) [1] (ATCC #v583) fell in the range of 6 to 12.5 µg/mL.

Turning to “GIINTLQKYYCRVRGGRCAVLSCLPKEEQIGKCSTRGRKCCRRKK [hBD3, Human recombinant β-defensin 3 obtained from PeproTech, reference compound]”, the MIC against E. faecalis (ATCC #v583) [1] (planktonic E. faecalis ATCC v583, BHI, 37°C, 18–24 hrs, OD 595 nm, triplicate per concentration) is above 20 µg/mL.
